Consider 23 compounds from patent US8586755B2, “Substituted nicotinamides as KCNQ2/3 modulators” (Grünenthal GmbH, priority 2009, dated 2013).

The pEC50 is −log10 of the EC50, conventionally taken in molar units.

pEC50: −log10 of the molar value.

The assay addresses T1, KCNQ2/3 channels (Homo sapiens, UniProt O43525+O43526).
T1 construct: expressed in transfected cells
Description: Fluorescence assay using a voltage sensitive dye (fluorimetry). Format: cell-based. The note with it: CHO-K1 cells expressing KCNQ2/3 channels; for pEC50: agonistic activity; for Emax: retigabine 50 μM = 100%, read-out: Fluorimetry % efficacy (retigabine 50 μM = 100%). An outline of the steps:
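Agonist EC50s come from the F2 vs F1 fluorescence comparison, F2 taken at the peak after KCl depolarisation (92 mM final) and F1 after 30 min compound exposure at room temperature. Assay uses KCNQ2/3-expressing CHO-K1 cells stained 45 min with a red voltage-sensitive dye in pH 7.4 ES buffer.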

`O=C(NCc1cccc(F)c1)c1cccnc1SCCCc1ccc(F)cc1` [compound 64, N-[(3-Fluorophenyl)-methyl]-2-[3-(4-fluorophenyl)-propylsulfanyl]-pyridine-3-carboxylic acid amide]: the pEC50 was 7.31 and the Emax was determined as 100%.
In the same order, the values of `O=C(NCc1ccccc1)c1cccnc1SCCCc1ccc(F)cc1` [compound 66, N-Benzyl-2-[3-(4-fluorophenyl)-propylsulfanyl]-pyridine-3-carboxylic acid amide] are 7.30 and 121%.
On the same counts, the results for `CC(CCc1ccccc1)Sc1ncccc1C(=O)NCC1CC2CCC1C2` (centres unmarked) [compound 67, N-(5-Bicyclo[2.2.1]heptanyl-methyl)-2-[(1-methyl-3-phenyl-propyl)sulfanyl]-pyridine-3-carboxylic acid amide] are 6.95 and 290%.
With `O=C(NCC1CC2CCC1C2)c1cccnc1SCCCc1cc(F)cc(C(F)(F)F)c1` (centres unmarked) [compound 69, N-(5-Bicyclo[2.2.1]heptanyl-methyl)-2-[3-[3-fluoro-5-(trifluoromethyl)-phenyl]-propylsulfanyl]-pyridine-3-carboxylic acid amide], the pEC50 is 6.85 and the Emax worked out at 259%.
Consider `COc1cccc(CCCSc2ncccc2C(=O)NCC2CC3CCC2C3)c1` (centres unmarked) [compound 70, N-(5-Bicyclo[2.2.1]heptanyl-methyl)-2-[3-(3-methoxyphenyl)-propylsulfanyl]-pyridine-3-carboxylic acid amide], for which the negative-log EC50 (pEC50) is 6.61 and the Emax worked out at 308%.
Regarding `O=C(NCc1ccc(F)c(F)c1)c1cccnc1SCCCc1ccc(F)cc1` [compound 71, N-[(3,4-Difluoro-phenyl)-methyl]-2-[3-(4-fluorophenyl)-propylsulfanyl]-pyridine-3-carboxylic acid amide], the pEC50 is 7.14 and the Emax stood at 107%.
As to `O=C(NCc1ccc2c(c1)CCO2)c1cccnc1SCCCc1ccc(F)cc1` [compound 72, N-(2,3-Dihydro-benzofuran-5-yl-methyl)-2-[3-(4-fluorophenyl)-propylsulfanyl]-pyridine-3-carboxylic acid amide], the pEC50 was 7.07 and the Emax was 85%.
Turning to `O=C(NCC1CC2CCC1C2)c1cccnc1SCCCc1cccc(O)c1` (centres unmarked) [compound 73, N-(5-Bicyclo[2.2.1]heptanyl-methyl)-2-[3-(3-hydroxyphenyl)-propylsulfanyl]-pyridine-3-carboxylic acid amide], the pEC50 was 6.42 and the Emax stood at 268%.
As to `CC(CCc1ccc(F)cc1)Sc1ncccc1C(=O)NCC1CC2CCC1C2` (centres unmarked) [compound 74, N-(5-Bicyclo[2.2.1]heptanyl-methyl)-2-[[3-(4-fluorophenyl)-1-methyl-propyl]sulfanyl]-pyridine-3-carboxylic acid amide], the pEC50 was 7.21 and the Emax amounted to 260%.
In the same order, the values of `CC(CSc1ncccc1C(=O)NCC1CC2CCC1C2)Cc1ccc(F)cc1` (centres unmarked) [compound 75, N-(5-Bicyclo[2.2.1]heptanyl-methyl)-2-[[3-(4-fluorophenyl)-2-methyl-propyl]sulfanyl]-pyridine-3-carboxylic acid amide] are 7.43 and 261%.
Take `COc1ccccc1CNC(=O)c1cccnc1SCCCc1ccc(F)cc1` [compound 76, 2-[3-(4-Fluorophenyl)-propylsulfanyl]-N-[(2-methoxyphenyl)-methyl]-pyridine-3-carboxylic acid amide]: the Emax was 33%.
As for `COc1cccc(CNC(=O)c2cccnc2SCCCc2ccc(F)cc2)c1` [compound 77, 2-[3-(4-Fluorophenyl)-propylsulfanyl]-N-[(3-methoxyphenyl)-methyl]-pyridine-3-carboxylic acid amide], the pEC50 is 6.63 and the Emax was determined as 118%.
Turning to `O=C(NCCc1ccccc1)c1cccnc1SCCCc1ccc(F)cc1` [compound 78, 2-[3-(4-Fluorophenyl)-propylsulfanyl]-N-phenethyl-pyridine-3-carboxylic acid amide], the pEC50 was 6.50 and the Emax worked out at 53%.
`O=C(NCc1ccc(OC(F)(F)F)cc1)c1cccnc1SCCCc1ccc(F)cc1` [compound 79, 2-[3-(4-Fluorophenyl)-propylsulfanyl]-N-[[4-(trifluoromethyloxy)-phenyl]-methyl]-pyridine-3-carboxylic acid amide]: the pEC50 was 7.00 and the Emax turned out to be 103%.
In the same order, the values of `O=C(NCc1ccc(C(F)(F)F)cc1)c1cccnc1SCCCc1ccc(F)cc1` [compound 80, 2-[3-(4-Fluorophenyl)-propylsulfanyl]-N-[[4-(trifluoromethyl)-phenyl]-methyl]-pyridine-3-carboxylic acid amide] are 7.11 and 104%.
On to `O=C(NCCc1cccnc1)c1cccnc1SCCCc1ccc(F)cc1` [compound 81, 2-[3-(4-Fluorophenyl)-propylsulfanyl]-N-(2-pyridine-3-yl-ethyl)-pyridine-3-carboxylic acid amide], for which the pEC50 is 5.10 and the Emax was 89%.
In the same order, the values of `O=C(NCCc1ccccn1)c1cccnc1SCCCc1ccc(F)cc1` [compound 82, 2-[3-(4-Fluorophenyl)-propylsulfanyl]-N-(2-pyridine-2-yl-ethyl)-pyridine-3-carboxylic acid amide] are 5.19 and 96%.
On the same counts, the results for `O=C(NCc1ccccc1O)c1cccnc1SCCCc1ccc(F)cc1` [compound 83, 2-[3-(4-Fluorophenyl)-propylsulfanyl]-N-[(2-hydroxyphenyl)-methyl]-pyridine-3-carboxylic acid amide] are 6.86 and 171%.
Consider `O=C(NCc1cccc(O)c1)c1cccnc1SCCCc1ccc(F)cc1` [compound 84, 2-[3-(4-Fluorophenyl)-propylsulfanyl]-N-[(3-hydroxyphenyl)-methyl]-pyridine-3-carboxylic acid amide], for which the pEC50 was 5.45 and the Emax came to 55%.
Regarding `Cc1cccc(CCNC(=O)c2cccnc2SCCCc2ccc(F)cc2)c1` [compound 85, 2-[3-(4-Fluorophenyl)-propylsulfanyl]-N-[2-(m-tolyl)-ethyl]-pyridine-3-carboxylic acid amide], the pEC50 is 6.40 and the Emax was found to be 59%.
For the compound `Cc1ccccc1CCNC(=O)c1cccnc1SCCCc1ccc(F)cc1` [compound 86, 2-[3-(4-Fluorophenyl)-propylsulfanyl]-N-[2-(o-tolyl)-ethyl]-pyridine-3-carboxylic acid amide], the Emax came to 26%.
Regarding `O=C(NCc1cccc(OC(F)(F)F)c1)c1cccnc1SCCCc1ccc(F)cc1` [compound 87, 2-[3-(4-Fluorophenyl)-propylsulfanyl]-N-[[3-(trifluoromethyloxy)-phenyl]-methyl]-pyridine-3-carboxylic acid amide], the pEC50 was 7.00 and the Emax was found to be 116%.
Regarding `O=C(NCc1ccc(O)cc1)c1cccnc1SCCCc1ccc(F)cc1` [compound 88, 2-[3-(4-Fluorophenyl)-propylsulfanyl]-N-[(4-hydroxyphenyl)-methyl]-pyridine-3-carboxylic acid amide], the pEC50 was 5.42 and the Emax came out at 53%.
